{"source": "patent US20240294550A1", "about": "“8-OXA-3-AZABICYCLO[3.2.1]OCTANE COMPOUNDS OR SALT THEREOF, AND PREPARATION METHOD AND USE THEREOF” (LITTDD MEDICINES LTD, priority 2021, published 2024)", "key": {"ATR": {"biological_target": "ATR (Homo sapiens (Human), UniProt Q13535)", "sequence (Q13535 whole entry)": "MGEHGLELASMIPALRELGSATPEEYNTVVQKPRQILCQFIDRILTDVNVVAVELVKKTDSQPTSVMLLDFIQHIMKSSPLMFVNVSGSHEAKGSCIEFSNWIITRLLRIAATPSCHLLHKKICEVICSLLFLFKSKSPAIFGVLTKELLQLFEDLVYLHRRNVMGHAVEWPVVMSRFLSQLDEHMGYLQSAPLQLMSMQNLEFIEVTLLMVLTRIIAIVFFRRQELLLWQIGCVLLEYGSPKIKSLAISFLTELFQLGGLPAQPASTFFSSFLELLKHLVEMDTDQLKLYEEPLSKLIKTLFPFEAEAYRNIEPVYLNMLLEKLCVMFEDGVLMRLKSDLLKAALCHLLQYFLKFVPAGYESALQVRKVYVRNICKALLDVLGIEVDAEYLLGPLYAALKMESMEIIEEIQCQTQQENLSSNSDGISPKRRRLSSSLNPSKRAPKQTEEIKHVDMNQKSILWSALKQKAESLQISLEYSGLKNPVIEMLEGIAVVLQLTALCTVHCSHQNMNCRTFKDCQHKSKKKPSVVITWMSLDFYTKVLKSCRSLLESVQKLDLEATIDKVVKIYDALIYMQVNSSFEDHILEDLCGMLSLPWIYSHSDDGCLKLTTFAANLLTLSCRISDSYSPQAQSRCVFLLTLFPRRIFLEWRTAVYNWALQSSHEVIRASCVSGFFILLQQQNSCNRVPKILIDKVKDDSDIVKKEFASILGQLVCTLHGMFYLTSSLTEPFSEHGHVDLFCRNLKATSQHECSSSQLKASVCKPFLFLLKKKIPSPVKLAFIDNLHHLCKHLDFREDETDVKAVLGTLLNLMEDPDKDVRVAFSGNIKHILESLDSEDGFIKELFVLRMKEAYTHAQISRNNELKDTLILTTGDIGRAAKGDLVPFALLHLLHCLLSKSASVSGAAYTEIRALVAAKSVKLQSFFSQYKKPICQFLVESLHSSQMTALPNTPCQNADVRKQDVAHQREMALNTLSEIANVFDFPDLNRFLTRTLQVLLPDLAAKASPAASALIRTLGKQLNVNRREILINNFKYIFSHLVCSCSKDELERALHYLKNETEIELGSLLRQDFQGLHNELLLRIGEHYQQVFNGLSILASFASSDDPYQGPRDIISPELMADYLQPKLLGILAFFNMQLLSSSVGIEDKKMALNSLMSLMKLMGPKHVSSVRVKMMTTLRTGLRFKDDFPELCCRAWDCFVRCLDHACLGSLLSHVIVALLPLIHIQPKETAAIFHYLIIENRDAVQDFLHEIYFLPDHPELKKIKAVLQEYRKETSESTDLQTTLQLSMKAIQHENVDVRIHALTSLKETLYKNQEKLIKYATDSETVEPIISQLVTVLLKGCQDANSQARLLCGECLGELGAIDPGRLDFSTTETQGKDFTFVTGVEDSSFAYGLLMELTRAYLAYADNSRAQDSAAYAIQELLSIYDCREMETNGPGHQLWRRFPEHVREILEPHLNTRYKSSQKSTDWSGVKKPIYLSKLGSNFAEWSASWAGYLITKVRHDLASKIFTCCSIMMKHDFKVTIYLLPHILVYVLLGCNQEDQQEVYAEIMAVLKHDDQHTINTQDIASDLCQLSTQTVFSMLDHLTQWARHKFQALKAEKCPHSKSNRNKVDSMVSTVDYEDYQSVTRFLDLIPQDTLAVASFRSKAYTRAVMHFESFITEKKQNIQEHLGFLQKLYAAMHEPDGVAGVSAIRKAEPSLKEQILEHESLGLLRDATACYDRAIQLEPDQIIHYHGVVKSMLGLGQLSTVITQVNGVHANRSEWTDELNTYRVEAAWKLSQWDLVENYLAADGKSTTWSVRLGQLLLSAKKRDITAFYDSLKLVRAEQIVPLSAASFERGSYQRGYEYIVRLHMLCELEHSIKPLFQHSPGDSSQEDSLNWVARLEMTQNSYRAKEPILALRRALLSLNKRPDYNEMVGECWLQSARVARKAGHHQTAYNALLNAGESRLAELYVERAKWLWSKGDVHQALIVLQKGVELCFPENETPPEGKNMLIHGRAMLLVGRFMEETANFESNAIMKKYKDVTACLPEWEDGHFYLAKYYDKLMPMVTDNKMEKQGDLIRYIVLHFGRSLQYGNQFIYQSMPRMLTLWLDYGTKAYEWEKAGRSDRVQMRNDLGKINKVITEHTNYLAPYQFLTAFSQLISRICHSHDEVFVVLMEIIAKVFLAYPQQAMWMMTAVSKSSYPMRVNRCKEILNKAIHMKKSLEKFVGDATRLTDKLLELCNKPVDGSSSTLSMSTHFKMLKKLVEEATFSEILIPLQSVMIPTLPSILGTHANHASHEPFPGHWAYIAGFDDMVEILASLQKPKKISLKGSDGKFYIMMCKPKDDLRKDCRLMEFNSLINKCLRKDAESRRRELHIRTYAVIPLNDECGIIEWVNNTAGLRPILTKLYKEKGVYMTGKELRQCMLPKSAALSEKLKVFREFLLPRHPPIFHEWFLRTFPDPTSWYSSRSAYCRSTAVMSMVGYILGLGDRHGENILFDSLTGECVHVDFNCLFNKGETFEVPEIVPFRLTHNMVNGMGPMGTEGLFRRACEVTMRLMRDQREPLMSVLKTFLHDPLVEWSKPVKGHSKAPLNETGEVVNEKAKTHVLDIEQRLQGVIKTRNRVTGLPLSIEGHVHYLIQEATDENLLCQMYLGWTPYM", "sequence (Q8WXE1 whole entry partner)": "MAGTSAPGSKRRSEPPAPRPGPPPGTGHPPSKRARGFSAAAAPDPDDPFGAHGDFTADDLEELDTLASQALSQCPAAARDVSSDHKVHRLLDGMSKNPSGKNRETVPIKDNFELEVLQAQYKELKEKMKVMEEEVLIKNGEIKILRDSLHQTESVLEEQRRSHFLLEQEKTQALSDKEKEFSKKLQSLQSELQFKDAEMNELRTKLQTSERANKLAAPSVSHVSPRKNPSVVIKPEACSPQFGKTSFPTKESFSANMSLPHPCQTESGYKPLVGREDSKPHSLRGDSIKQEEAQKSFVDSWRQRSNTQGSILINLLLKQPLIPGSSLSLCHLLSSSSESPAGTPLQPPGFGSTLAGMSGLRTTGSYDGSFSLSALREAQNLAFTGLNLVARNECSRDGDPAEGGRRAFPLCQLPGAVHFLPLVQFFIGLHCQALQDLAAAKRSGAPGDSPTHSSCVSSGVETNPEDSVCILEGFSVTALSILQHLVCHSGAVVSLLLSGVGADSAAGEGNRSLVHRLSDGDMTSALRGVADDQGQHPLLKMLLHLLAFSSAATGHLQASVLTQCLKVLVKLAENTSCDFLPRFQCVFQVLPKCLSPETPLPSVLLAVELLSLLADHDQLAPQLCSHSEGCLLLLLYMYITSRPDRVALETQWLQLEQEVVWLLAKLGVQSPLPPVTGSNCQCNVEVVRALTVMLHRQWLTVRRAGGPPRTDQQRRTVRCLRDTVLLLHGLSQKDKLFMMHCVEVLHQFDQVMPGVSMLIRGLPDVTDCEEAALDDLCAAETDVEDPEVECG", "experiment": "ATR kinase inhibition assay (HTRF)", "format": "biochemical", "settings": "p53 substrate, ATP 150 nM", "description": "This experiment adopted Homogeneous time-resolved fluorescence technology (HTRF®) of Cisbio Company for assay.\nExperiment method: buffers were prepared as follows:\nPreparation of solutions of the test compounds: The example compounds shown in the table below were prepared into solutions using DMSO as solvent, the stock solution typically being 10 mM. The maximum starting concentration in this experiment was 3 μM, DMSO 3-fold serial dilutions for concentrations, the serially diluted solution was added to each well of the corresponding 384-well plate (geriner bio-one, Cat #784075) to give final concentrations of 3000, 1000, 333, 111, 37, 12.3, 4.12, 1.37, 0.457, 0.152 nM, respectively, and the corresponding amount of DMSO was added to the additional wells to be used as negative or positive control wells, respectively.\nThe enzyme and substrate were separately dissolved and diluted in two tubes with the buffer prepared above at the following concentrations:\n5 μL of the ATR protein solution from tube A was added to the compound-containing wells and the negative control wells in the assay plates using an electric multichannel pipettor, and the same volume of the prepared buffer (medium only, no enzyme) was added to the positive control wells. The plates were centrifuged for one minute at 1000 rpm, and then placed in an incubator at 25° C. for 15 minutes. 5 μL of the substrate mix solution from tube B was added to the positive control well, negative control well and the compound-containing well of the assay plates in the same manner, centrifuged and incubated at 25° C. for 90 minutes.\nDuring the reaction, after ATR phosphorylated the substrate p53, two antibodies were added. Among them, anti-phospho-p53-Eu, as an energy donor, can specifically bind to the phosphorylation site of p53, while anti-GST-d2, as an energy receptor, can specifically bind to the GST-tagged p53. Upon excitation by a laser with certain wavelength (the excitation wavelength in this experiment is 340 nm), the energy donor can emit emission light of 615 nm, and when the energy donor and the energy receptor are close enough in space (that is, two antibodies are connected to p53 at the same time), energy transfer can occur between the energy donor and the energy receptor, so that the energy receptor can emit emission light of 665 nm. The two emission lights were detected by a plate reader, and the ratio of the signals at 665 nm and 615 nm was calculated. The IC50 of the samples tested can be obtained by plotting and calculation.\n10 μL per well of the detection solution was added to the positive control, negative control and compound wells of the assay plate using an electric multichannel pipette, centrifuged and incubated overnight at 4° C., and read with the plate reader Envision 2104.\nCompound inhibition rate was calculated using interpolation. The mean values of the positive and negative controls were calculated respectively, and the following formula was used to calculate the inhibition rates of the compounds:\nInhibition rate Minimum response+(Compound concentration ^Curve slope)*(Maximum response−Minimum response)/(Compound concentration^Curve slope+Half inhibition concentration ^Curve slope)\nThe IC50 value of each compound to enzyme activity was obtained."}, "LOVO cells": {"test_system": "LOVO cells", "experiment": "Cell proliferation assay (CellTiter-Glo)", "format": "cell-based", "settings": "Homo sapiens, 96 hours", "description": "The cell proliferation inhibition effect of the compound of the invention was tested using CellTiter-Glo™ cell viability assay kit. This kit uses luciferase as the detector. During the luminescence process, the luciferase requires the participation of ATP. CellTiter-Glo™ reagent was added to the cell culture medium, and the luminescence value was measured. The light signal is proportional to the amount of ATP present in the system, and ATP positively correlates with the number of viable cells present, thus the cell proliferation activity is measured.\nCell culture and seeding: LOVO cells in logarithmic growth phase (human colon carcinoma cells) (ATCC CCL-229) were harvested and counted using a platelet counter. Trypan blue exclusion method was used to detect the cell viability to ensure that the cell viability was above 90%. 90 μL of cell suspension (RPMI1640+10% fetal bovine serum) was added to a 96-well transparent flat-bottom black-wall plate (Thermo, 165305) respectively, and the cell concentration was adjusted to 3000/well/90 μl. Cells in the 96-well plate were incubated overnight at 37° C., 5% CO2 with 95% humidity (Thermo, Model 3100 Series).\nFirstly, DMSO was used as the solvent to prepare 10 mM mother solution of the test compounds, and then PBS was used to dilute 100 times to prepare a solution of 10 times of final concentration, the highest concentration was 100 μM. 10 μL solution of the test compounds was added to each well of the 96 well plate inoculated with cells, namely the solution was further diluted 10 times to reach the final concentration of 10 μM. Starting from 10 μM, the final concentration of the test compound was 3-fold serially diluted, with 9 concentrations in total with 3 triplicates for each concentration. The 96 well plates with the test compounds and cells were incubated at 37° C., 5% CO2 and 95% humidity for 96 hours, and then CellTiter Glo analysis was performed.\nCellTiter-Glo Reagents (CellTiter Glo R Luminescent Cell Viability Assay, Promega, G7572) were melted and the 96-well plates were equilibrated to room temperature for 30 minutes. An equal volume of CellTiter-Glo solution was added to each well, and the cells were lysed by shaking on the fixed orbit shaker for 5 minutes. The assay plates were left at room temperature for 20 minutes to stabilize the luminescence signal, and the luminescence signals were read using the SpectraMax multi-labeled microplate detector (MD, M3).\nData were analyzed using GraphPad Prism 7.0 software, fitted with non-linear S-curve regression to derive the dose-response curves, and IC50 values were calculated therefrom.\nCell survival rate (%)=(LumDrug to be tested−LumCulture medium control)/(LumCell control−LumCulture medium control)×100%"}}, "note": "Counter-ions that a name gives are not always drawn."}
{"molecule": "C[C@@H]1CN(c2cc(N3CC4CCC(C3)O4)nn3c(-c4cc[nH]n4)ncc23)C[C@H](C)O1", "note": "[Example 16, 3-(4-(cis-2,6-dimethylmorpholino)-7-(1H-pyrazol-3-yl)imidazo[1,5-b]pyridazin-2-yl)-8-oxa-3-azabicyclo[3.2.1]octane]", "values": [{"measurement": "IC50", "setting": "ATR", "result": 0.0219, "unit": "µM"}, {"measurement": "IC50", "setting": "LOVO cells", "result": 0.31, "unit": "µM"}]}
{"molecule": "CC1(C)COCCN1c1cc(N2CC3CCC(C2)O3)nn2c(-c3cc[nH]n3)ncc12", "note": "[Example 20, 3-(4-(3,3-dimethylmorpholino)-7-(1H-pyrazol-3-yl)imidazo[1,5-b]pyridazin-2-yl)-8-oxa-3-azabicyclo[3.2.1]octane]", "values": [{"measurement": "IC50", "setting": "ATR", "result": 0.0014, "unit": "µM"}, {"measurement": "IC50", "setting": "LOVO cells", "result": 0.039, "unit": "µM"}]}
{"molecule": "C[C@@H]1CN(C)CCN1c1cc(N2CC3CCC(C2)O3)nn2c(-c3cc[nH]n3)ncc12", "note": "[Example 11, 3-(4-((R)-2,4-dimethylpiperazin-1-yl)-7-(1H-pyrazol-3-yl)imidazo[1,5-b]pyridazin-2-yl)-8-oxa-3-azabicyclo[3.2.1]octane formate]", "values": [{"measurement": "IC50", "setting": "ATR", "result": 0.0224, "unit": "µM"}, {"measurement": "IC50", "setting": "LOVO cells", "result": 2.64, "unit": "µM"}]}
{"molecule": "C[C@@H]1CC(F)(F)CCN1c1cc(N2CC3CCC(C2)O3)nn2c(-c3cc[nH]n3)ncc12", "note": "[Example 31, 3-(4-((R)-4,4-difluoro-2-methylpiperidin-1-yl)-7-(1H-pyrazol-3-yl)imidazo[1,5-b]pyridazin-2-yl)-8-oxa-3-azabicyclo[3.2.1]octane]", "values": [{"measurement": "IC50", "setting": "ATR", "result": 0.0039, "unit": "µM"}, {"measurement": "IC50", "setting": "LOVO cells", "result": 0.158, "unit": "µM"}]}
{"molecule": "C[C@@H]1COCCN1c1c(Cl)c(N2CC3CCC(C2)O3)nn2c(-c3cc[nH]n3)ncc12", "note": "[Example 4, 3-(3-chloro-4-((R)-3-methylmorpholino)-7-(1H-pyrazol-3-yl)imidazo[1,5-b]pyridazin-2-yl)-8-oxa-3-azabicyclo[3.2.1]octane]", "values": [{"measurement": "IC50", "setting": "ATR", "result": 0.0203, "unit": "µM"}, {"measurement": "IC50", "setting": "LOVO cells", "result": 0.14, "unit": "µM"}]}
{"molecule": "C[C@H]1CC(F)(F)CCN1c1cc(N2CC3CCC(C2)O3)nn2c(-c3cc[nH]n3)ncc12", "note": "[Example 32, 3-(4-((S)-4,4-difluoro-2-methylpiperidin-1-yl)-7-(1H-pyrazol-3-yl)imidazo[1,5-b]pyridazin-2-yl)-8-oxa-3-azabicyclo[3.2.1]octane]", "values": [{"measurement": "IC50", "setting": "ATR", "result": 0.0056, "unit": "µM"}, {"measurement": "IC50", "setting": "LOVO cells", "result": 0.156, "unit": "µM"}]}
{"molecule": "c1cc(-c2ncc3c(N4C5CCC4COC5)cc(N4CC5CCC(C4)O5)nn23)n[nH]1", "note": "[Example 8, 8-(2-(8-oxa-3-azabicyclo[3.2.1]octan-3-yl)-7-(1H-pyrazol-3-yl)imidazo[1,5-b]pyridazin-4-yl)-3-oxa-8-azabicyclo[3.2.1]octane]", "values": [{"measurement": "IC50", "setting": "ATR", "result": 0.0184, "unit": "µM"}, {"measurement": "IC50", "setting": "LOVO cells", "result": 0.243, "unit": "µM"}]}
{"molecule": "OCC1COCCN1c1cc(N2C[C@H]3CC[C@@H](C2)O3)nc2c1cnn2-c1cc[nH]n1", "note": "(stereo partly drawn) [Example 35, (4-(6-((1R,5S)-8-oxa-3-azabicyclo[3.2.1]octan-3-yl)-1-(1H-pyrazol-3-yl)-1H-pyrazolo[3,4-b]pyridin-4-yl)morpholin-3-yl)methanol]", "values": [{"measurement": "IC50", "setting": "ATR", "result": 0.0153, "unit": "µM"}, {"measurement": "IC50", "setting": "LOVO cells", "result": 0.522, "unit": "µM"}]}
{"molecule": "CC(=O)N1CCN(c2cc(N3C[C@H]4CC[C@@H](C3)O4)nn3c(-c4cc[nH]n4)ncc23)[C@H](C)C1", "note": "[Example 29, 1-((R)-4-(2-((1R,5S)-8-oxa-3-azabicyclo[3.2.1]octan-3-yl)-7-(1H-pyrazol-3-yl)imidazo[1,5-b]pyridazin-4-yl)-3-methylpiperazin-1-yl)ethan-1-one]", "values": [{"measurement": "IC50", "setting": "ATR", "result": 0.0045, "unit": "µM"}, {"measurement": "IC50", "setting": "LOVO cells", "result": 0.488, "unit": "µM"}]}
{"molecule": "C[C@H]1COCCN1c1cc(N2CC3CCC(C2)O3)nn2c(-c3cc[nH]n3)ncc12", "note": "[Example 15, 3-(4-((S)-3-methylmorpholino)-7-(1H-pyrazol-3-yl)imidazo[1,5-b]pyridazin-2-yl)-8-oxa-3-azabicyclo[3.2.1]octane]", "values": [{"measurement": "IC50", "setting": "ATR", "result": 0.022, "unit": "µM"}, {"measurement": "IC50", "setting": "LOVO cells", "result": 0.186, "unit": "µM"}]}
{"molecule": "CC1(C)COCCN1c1cc(N2CC3CCC(C2)O3)nc2c(-c3ccn[nH]3)cnn12", "note": "[Example 36, 3-(7-(3,3-dimethylmorpholino)-3-(1H-pyrazol-5-yl)pyrazolo[1,5-a]pyrimidin-5-yl)-8-oxa-3-azabicyclo[3.2.1]octane]", "values": [{"measurement": "IC50", "setting": "ATR", "result": 0.0062, "unit": "µM"}, {"measurement": "IC50", "setting": "LOVO cells", "result": 0.148, "unit": "µM"}]}
{"molecule": "C[C@@H]1COCCN1c1cc(N2CC3CCC(C2)O3)nc2c(-c3cc[nH]n3)nn(C)c12", "note": "[Example 19, 3-(1-methyl-7-((R)-3-methylmorpholino)-3-(1H-pyrazol-3-yl)-1H-pyrazolo[4,3-b]pyridin-5-yl)-8-oxa-3-azabicyclo[3.2.1]octane]", "values": [{"measurement": "IC50", "setting": "LOVO cells", "result": 0.62, "unit": "µM"}]}
